Laboratory results: patent EP4702986A1, “POLYPEPTIDE AND USE THEREOF” (Biocells (Beijing) Biotech Co., Ltd., priority 2023, dated 2024)
“Also recorded” adds a separate entry of the source. Like-named read-outs stand apart in the source and are kept apart here. Numbered stars: 1 amine (or outer) side, 2 acyl side, 3 side chain; on linkers, the order of the positions; unused ones are H or OH. Side chains are listed from the residue outwards. Ends that are not written are not given here. Peptide text beside a SMILES is read from it. * marks the point of attachment. C18 diacid = O=C(O)CCCCCCCCCCCCCCCCC(=O)*; γGlu = O=C(O)[C@H](CCC(=O)[*:2])N[*:1]; Fumaroyl = O=C(O)/C=C/C(=O)*; Suc = O=C(CCC(=O)[*:2])[*:1]; Lauroyl = CCCCCCCCCCCC(=O)*; AEEA = NCCOCCOCC(=O)O

Assays:
male SD rats = settings: one animal per row, observed 48 hours
Protocol: In an experiment about acute toxicity of subcutaneous administration, male SD rats weighing 200-230 g were dosed in a range between 60 µg/Kg and 960 µg/Kg. Observation was made for 48 hours after subcutaneous administration. Toxic response and mortality of the rats were preliminarily observed, and time of death and doses without mortality were recorded. The level of acute toxicity of the polypeptides was preliminarily determined based on the doses without mortality.

mouse model of dMACO = test: Cerebral blood flow perfusion in mouse model of dMACO (laser speckle flowmeter); assay type: in vivo, C57 BL/6 mice
Source text: Eight-week-old male C57 BL/6 mice were used and acclimated for at least 3 days. On the day of experiment, the mice were anesthetized with isoflurane, and an incision of approximately 2 cm in length was made in the middle of the […]. The mice were placed under a laser speckle flowmeter to capture a video of blood flow on both sides of the brain as images of pre-ischemic blood flow perfusion. Subsequently, a skull incision (3 mm×1.5 mm) was made at the right rear of the intersection of the sagittal suture and the coronal suture with a skull drill. The distal end of the right middle cerebral artery was located under a microscope, and a No.11 suture was used to ligate the middle artery. Meanwhile, the right common carotid artery was separated and ligated. A video of blood flow on both sides of the brain was captured again as images of post-ischemic blood flow perfusion. The scalp was sutured, and the animals were rewarmed in a rewarming box. Successfully modeled dMACO mice were randomly assigned to single-dose BX-34 groups of 7, 14, and 42 µg/Kg, single-dose IRL1620 groups of 5 and 10 µg/Kg, a three-dose IRL1620 group of 10 µg/Kg, and a normal saline control group. The single-dose groups were administered via tail vein 1 h after modeling, while the three-dose group was administered via tail vein at 1 hour, 3 hours, and 5 hours after modeling. A video of blood flow on both sides of the brain of each animal was captured again at 24 hours, 48 hours, and D7 after administration. During data analysis, the ROI was introduced or the area requiring blood flow calculation was selected. The average blood flow of the selected area was calculated by double-clicking on the blood flow image. Ratios of the average blood flow perfusions on right brain after modeling, and 24 hours, 48 hours and D7 after administration, to the average blood flow on right brain before modeling were used for statistical analysis of each group.

[1] = Determination of half-lives of polypeptides (plasma, LC-MS); settings: for half-life: C57 BL/6, mouse, plasma, iv; for AUClast 0-30 min: C57 BL/6 mice, i.v., dosage per compound 0.48, 0.96 or 1 mpk
human ETB receptor = target: T1, human ETB receptor (Homo sapiens, UniProt P24530); test: Screening of polypeptides for activity on human ETB receptor (IP-One Gq kit, % of positive control IRL1620); assay type: cell-based
T1 construct: expressed in transfected cells; host or cells: 293T-17 cells, transient transfection
T1 sequence (P24530 27-442): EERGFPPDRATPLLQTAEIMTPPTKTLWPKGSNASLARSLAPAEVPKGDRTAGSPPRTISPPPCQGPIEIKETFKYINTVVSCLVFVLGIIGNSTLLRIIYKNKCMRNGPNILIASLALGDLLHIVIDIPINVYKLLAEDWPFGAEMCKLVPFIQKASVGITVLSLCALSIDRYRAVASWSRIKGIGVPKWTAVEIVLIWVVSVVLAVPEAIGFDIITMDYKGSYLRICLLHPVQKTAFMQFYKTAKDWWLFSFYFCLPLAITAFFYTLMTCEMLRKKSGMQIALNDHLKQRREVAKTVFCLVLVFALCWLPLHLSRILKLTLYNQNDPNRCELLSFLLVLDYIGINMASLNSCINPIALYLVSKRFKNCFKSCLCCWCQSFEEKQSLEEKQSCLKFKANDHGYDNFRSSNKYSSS
Protocol: 293T-17 cells were seeded at a density of 650,000 cells per well in a 6-well plate and cultured overnight in an incubator at 37°C and 5% CO2. Afterward, the cells were transfected with an expression vector, PCDNA3.1-hETB which contained a human ETB receptor gene, at a plasmid concentration of 2.5 µg per well. The cells were further cultured for 48 hours, and green fluorescence expression was observed under a fluorescence microscope. The cells were then digested with trypsin and counted. The activity of compounds on the human ETB receptor was determined with the IP-One Gq kit from Cisbio Bioassays. The cells were suspended in Stim Buffer provided in the kit and the cell suspension was added to a 96-well detection plate at 7 µL cell suspension (containing 30,000 cells) per well. The polypeptides to be screened for activity (prepared according to the Preparation Example of the invention) and polypeptide IRL1620 as positive control were dissolved in Stim B to be at a concentration of 2×, and 7 µL was added to the test cells, while 7 µL of PBS solution was added to the cells in the negative control wells. IRL1620 was used as the positive control polypeptide. The plate was sealed and incubated at 37°C for 1 hour in a cell culture incubator. Test wells, positive control wells, and PBS control wells were each added with 3 µL of IP1 d2 working solution and 3 µL of IP1 Tb cryptotate Antibody working solution. The plate was then sealed and incubated in the dark at room temperature (25°C±5°C) for 1 hour. The plate seal was removed, and the […] at 665 nm and 620 nm was measured with an ID5 microplate reader. The ratio of the acceptor emission signal to the donor emission signal, i.e., the value of (signal at 665 nm/signal at 620 nm)×10^4, was calculated for each well. With F1 representing the average value of values of signal at 665 nm/signal at 620 nm determined for the test sample at a specific concentration, F2 representing the average value of values of signal at 665 nm/signal at 620 nm determined for the positive control IRL1620 at the same concentration, and T1 representing the average value of values of signal at 665 nm/signal at 620 nm determined for the PBS negative control, the percentage of activity of the test polypeptide sample relative to the positive control sample IRL1620 is equal to (F1-T1)×100/(F2-T1). hETB sequence (NCBI accession number NM_000115.5).

Row | hETBR agonist activity, percentage of activity relative to IRL1620 (human ETB receptor) | hETBR agonist activity, percentage of activity relative to IRL1620 (human ETB receptor; @10nM) | Compound | half-life [1] | AUClast 0-30 min [1] | other results
1 | – | – | CCCCCCCCCCCC(=O)N[C@@H](CCC(=O)NCCOCCOCC(=O)NCCCC[C@H](NC(=O)[C@H](Cc1c[nH]cn1)NC(=O)[C@H](C)NC(=O)[C@H](Cc1ccccc1)NC(=O)[C@H](Cc1ccc(O)cc1)NC(=O)[C@@H](NC(=O)[C@H](C)NC(=O)[C@H](CCC(=O)O)NC(=O)[C@H](CCC(=O)O)NC(=O)[C@H](CC(=O)O)NC(=O)/C=C/C(=O)O)C(C)C)C(=O)N[C@@H](CC(=O)O)C(=O)N[C@H](C(=O)N[C@H](C(=O)N[C@@H](Cc1c[nH]c2ccccc12)C(=O)O)[C@@H](C)CC)C(C)C)C(=O)O [BX229-Na] (Fumaroyl-DEEAVYFAHK([AEEA-γGlu-Lauroyl])DVIW-OH) | – | – | Observations of Animal Status (male SD rats; subcutaneous 120 µg/Kg): No obvious reaction observed within 24 hours; Observations of Animal Status (male SD rats; subcutaneous 240 µg/Kg): No obvious abnormal reaction observed within 48 hours; Observations of Animal Status (male SD rats; subcutaneous 480 µg/Kg): No obvious abnormal reaction observed within 48 hours; Observations of Animal Status (male SD rats; subcutaneous 960 µg/Kg): No significant reaction within 2 hours, died at 2 hours and 10 minutes; also recorded: No obvious abnormal reaction observed within 48 hours
2 | – | – | CC[C@H](C)[C@H](NC(=O)[C@H](CC(=O)O)NC(=O)[C@H](CCCCNC(=O)COCCOCCNC(=O)COCCOCCNC(=O)CC[C@H](NC(=O)CCCCCCCCCCCCCCCCC(=O)O)C(=O)O)NC(=O)[C@H](Cc1c[nH]cn1)NC(=O)[C@H](C)NC(=O)[C@H](Cc1ccccc1)NC(=O)[C@H](Cc1ccc(O)cc1)NC(=O)[C@@H](NC(=O)[C@H](C)NC(=O)[C@H](CCC(=O)O)NC(=O)[C@H](CCC(=O)O)NC(=O)[C@H](CC(=O)O)NC(=O)/C=C/C(=O)O)C(C)C)C(=O)N[C@H](C(=O)N[C@@H](Cc1c[nH]c2ccccc12)C(=O)O)[C@@H](C)CC [BX-34] (Fumaroyl-DEEAVYFAHK([AEEA-AEEA-γGlu-C18 diacid])DIIW-OH) | 63 min | 7736 ng·h/mL | cerebral blood flow perfusion amount compared to the normal saline group (mouse model of dMACO; dMCAO mice, single dose of 42 µg/kg via tail vein, 24 hours, 48 hours and D7 after administration): significantly increased
3 | – | – | CCCCCCCCCCCC(=O)N[C@@H](CCC(=O)NCCOCCOCC(=O)NCCCC[C@H](NC(=O)[C@H](Cc1c[nH]cn1)NC(=O)[C@H](C)NC(=O)[C@H](Cc1ccccc1)NC(=O)[C@H](Cc1ccc(O)cc1)NC(=O)[C@@H](NC(=O)[C@H](C)NC(=O)[C@H](CCC(=O)O)NC(=O)[C@H](CCC(=O)O)NC(=O)[C@H](CC(=O)O)NC(=O)/C=C/C(=O)O)C(C)C)C(=O)N[C@@H](CC(=O)O)C(=O)N[C@H](C(=O)N[C@H](C(=O)N[C@@H](Cc1c[nH]c2ccccc12)C(=O)O)[C@@H](C)CC)[C@@H](C)CC)C(=O)O [BX-225] (Fumaroyl-DEEAVYFAHK([AEEA-γGlu-Lauroyl])DIIW-OH) | 37 min | 4981 ng·h/mL | –
4 | – | – | CC[C@H](C)[C@H](NC(=O)[C@H](CC(=O)O)NC(=O)[C@H](CC(C)C)NC(=O)[C@H](Cc1c[nH]cn1)NC(=O)[C@H](C)NC(=O)[C@H](Cc1ccccc1)NC(=O)[C@H](Cc1ccc(O)cc1)NC(=O)[C@@H](NC(=O)[C@H](C)NC(=O)[C@H](CCC(=O)O)NC(=O)[C@H](CCC(=O)O)NC(=O)[C@H](CC(=O)O)NC(=O)CCC(=O)O)C(C)C)C(=O)N[C@H](C(=O)N[C@@H](Cc1c[nH]c2ccccc12)C(=O)O)[C@@H](C)CC [IRL1620, reference compound] (Suc-DEEAVYFAHLDIIW-OH) | < 2.6 min | 130 ng·h/mL | cerebral blood flow perfusion amount compared to the normal saline group (mouse model of dMACO; dMCAO mice, single dose of 5 µg/kg via tail vein): no significant differences; cerebral blood flow perfusion amount compared to the normal saline group (mouse model of dMACO; mouse, in vivo): no significant differences; Observations of Animal Status (male SD rats; subcutaneous 60 µg/Kg): Developed rapid breathing at 25 minutes after administration, recovered after 15 minutes; also recorded: Developed rapid breathing at 26 minutes after administration, recovered after 16 minutes; also recorded: Developed rapid breathing at 30 minutes after administration, recovered after 17 minutes; also recorded: Developed rapid breathing at 25 minutes after administration, recovered after 16 minutes; Observations of Animal Status (male SD rats; subcutaneous 120 µg/Kg): Developed rapid breathing at 27 minutes after administration, gradually recovered after 50 minutes; also recorded: Developed rapid breathing at 26 minutes after administration and lasted for 23 minutes; then died; also recorded: Developed rapid breathing at 26 minutes after administration, gradually recovered after 50 minutes; also recorded: Developed rapid breathing at 28 minutes after administration, gradually recovered after 50 minutes
5 | 121.00%@100nM | 145.60%@10nM | Fum-DEEEVYFAHKDIIW (Fumaroyl-DEEEVYFAHKDIIW) [BX-52] | – | – | –
6 | 93.46%@100nM | 125.64%@10nM | Fum-DEEEVYFAHOrnDIIW [BX-59] | – | – | –
7 | 121.58%@100nM | 86.20%@10nM | Suc-DE cyclo(CEEC)YFAHKDIIW (Suc-DECEECYFAHKDIIW; not fully specified (bridges); printed as Suc-DE cyclo(CEEC)YFAHKDIIW; also: cyclo(CEEC) in N-terminal extension, bond type not given here) [BX-57] | – | – | –
